Data reported in patent US20250188062A1, “TRIAZINE COMPOUNDS AND METHODS OF MAKING AND USING THE SAME” (Athos Therapeutics, Inc., priority 2021, published 2025).

How the values were obtained:
THP-1 human monocytes = assay: Cellular assay for anti-inflammatory properties: cytokine ELISA multiplex in LPS-stimulated PMA-differentiated THP-1 macrophages; type: cell-based; conditions: 1 μM, 4 hours before 100 ng/mL LPS for 4 or 24 hours; cytokine protein in media vs LPS+PMA only
Protocol: The anti-inflammatory properties of five JMJD3 inhibitors (99, 92, 93, 98, and 95, in no particularly order) were evaluated in an immune cellular assay targeting key pro-inflammatory cytokines involved in the pathogenesis of multiple autoimmune disease.
Specifically, THP-1 human monocytes were grown in 6-well plates (RPMI 1640+10% FBS+1% P/S). After washing with PBS the THP-1 cells were differentiated into macrophages using 20 nM of phorbol 12-myristate 13-acetate (PMA) for 24 hrs. 99, 92, 93, 98, and 95) (1 μM) were added into the macrophages, which are incubated for 4 hours before the addition of 100 ng/mL lipopolysaccharide (LPS) for either 4 or 24 hours. Next, the macrophages are collected via centrifugation at 1.2K rpm for 5 min and use their media to evaluate cytokine protein levels by using the Bio-rad Cytokine ELISA multiplex assay (cat. No M5000031YV). The supernatants from macrophages treated only with only LPS+PMA were collected and used as negative controls.

Naïve CD4+ T human cells = assay: Cellular assay for FoxP3 induction activity (qPCR of FoxP3 mRNA); type: cell-based; conditions: CD4+ T cells activated with anti-CD3, IL-2 and TGF-β for 5 days; FoxP3 mRNA by qPCR on day 5; FIG. 3
Protocol: CD4+CD25+FOXP3+ regulatory T cells (Tregs) suppress pro-inflammatory cells and signals and are critical mediators of tolerance, inhibiting excessive inflammation and autoimmunity. Also, treatment of CD4+ T cells with interleukin 2 (IL-2) and transforming growth factor beta (TGF-β) signaling are important for FOXP3 induction and Treg formation.
Naïve CD4+ T human cells (cat. no 2W-200, Lonza) were cultured and activated with artificial antigen-presenting cells and soluble anti-CD3 (100 ng/ml) in the presence of IL-2 (300 U/ml) and TGF-β (10 ng/ml) for 5 days. On day 3, cells were transfected with an anti-sense RNA against JMJD3 (cat. No 1299001, Thermo) using Lipofectamine 2000 (cat. No 11668027, Thermo). On day 5, RNA was extracted and qPCR analysis was performed to evaluate FoxP3 mRNA levels by using the following primers: F: 5′-TCCACAACATGCGACCCCCTTTCA-3′ and R: 5′-ACAGCCCCCTTCTCGCTCTCCA-3′ having a 217 bp product. All JMJD3 inhibitors (99, 92, 93, 98, and 95) in CD4+ T cells induced 7-fold FoxP3 expression levels, thus moving towards differentiation and formation of Tregs. […] Thus, genetic or pharmacological inhibition of […] will result into FoxP3 activation and induction of Treg formation. Based on this evidence, JMJD3 inhibitors (99, 92, 93, 98, and 95)) could be used in autoimmune diseases where T-regulatory cells have therapeutic potential. There is increasing evidence and literature derived from human clinical studies (Arellano B et al., Regulatory T Cell-based Therapies for Autoimmunity, Discov Med, 22:73-80, 2016).

JMJD3 = JMJD3 (Homo sapiens, UniProt O15054); assay: JMJD3 binding assay (Kd, affinity beads, qPCR readout); conditions: 11-point 3-fold dilution series, 0.9% DMSO, room temperature 1 hour; read-out: JMJD3 Affinity (binding constant, Kd)
Sequence of JMJD3 (O15054 whole entry, species assumed): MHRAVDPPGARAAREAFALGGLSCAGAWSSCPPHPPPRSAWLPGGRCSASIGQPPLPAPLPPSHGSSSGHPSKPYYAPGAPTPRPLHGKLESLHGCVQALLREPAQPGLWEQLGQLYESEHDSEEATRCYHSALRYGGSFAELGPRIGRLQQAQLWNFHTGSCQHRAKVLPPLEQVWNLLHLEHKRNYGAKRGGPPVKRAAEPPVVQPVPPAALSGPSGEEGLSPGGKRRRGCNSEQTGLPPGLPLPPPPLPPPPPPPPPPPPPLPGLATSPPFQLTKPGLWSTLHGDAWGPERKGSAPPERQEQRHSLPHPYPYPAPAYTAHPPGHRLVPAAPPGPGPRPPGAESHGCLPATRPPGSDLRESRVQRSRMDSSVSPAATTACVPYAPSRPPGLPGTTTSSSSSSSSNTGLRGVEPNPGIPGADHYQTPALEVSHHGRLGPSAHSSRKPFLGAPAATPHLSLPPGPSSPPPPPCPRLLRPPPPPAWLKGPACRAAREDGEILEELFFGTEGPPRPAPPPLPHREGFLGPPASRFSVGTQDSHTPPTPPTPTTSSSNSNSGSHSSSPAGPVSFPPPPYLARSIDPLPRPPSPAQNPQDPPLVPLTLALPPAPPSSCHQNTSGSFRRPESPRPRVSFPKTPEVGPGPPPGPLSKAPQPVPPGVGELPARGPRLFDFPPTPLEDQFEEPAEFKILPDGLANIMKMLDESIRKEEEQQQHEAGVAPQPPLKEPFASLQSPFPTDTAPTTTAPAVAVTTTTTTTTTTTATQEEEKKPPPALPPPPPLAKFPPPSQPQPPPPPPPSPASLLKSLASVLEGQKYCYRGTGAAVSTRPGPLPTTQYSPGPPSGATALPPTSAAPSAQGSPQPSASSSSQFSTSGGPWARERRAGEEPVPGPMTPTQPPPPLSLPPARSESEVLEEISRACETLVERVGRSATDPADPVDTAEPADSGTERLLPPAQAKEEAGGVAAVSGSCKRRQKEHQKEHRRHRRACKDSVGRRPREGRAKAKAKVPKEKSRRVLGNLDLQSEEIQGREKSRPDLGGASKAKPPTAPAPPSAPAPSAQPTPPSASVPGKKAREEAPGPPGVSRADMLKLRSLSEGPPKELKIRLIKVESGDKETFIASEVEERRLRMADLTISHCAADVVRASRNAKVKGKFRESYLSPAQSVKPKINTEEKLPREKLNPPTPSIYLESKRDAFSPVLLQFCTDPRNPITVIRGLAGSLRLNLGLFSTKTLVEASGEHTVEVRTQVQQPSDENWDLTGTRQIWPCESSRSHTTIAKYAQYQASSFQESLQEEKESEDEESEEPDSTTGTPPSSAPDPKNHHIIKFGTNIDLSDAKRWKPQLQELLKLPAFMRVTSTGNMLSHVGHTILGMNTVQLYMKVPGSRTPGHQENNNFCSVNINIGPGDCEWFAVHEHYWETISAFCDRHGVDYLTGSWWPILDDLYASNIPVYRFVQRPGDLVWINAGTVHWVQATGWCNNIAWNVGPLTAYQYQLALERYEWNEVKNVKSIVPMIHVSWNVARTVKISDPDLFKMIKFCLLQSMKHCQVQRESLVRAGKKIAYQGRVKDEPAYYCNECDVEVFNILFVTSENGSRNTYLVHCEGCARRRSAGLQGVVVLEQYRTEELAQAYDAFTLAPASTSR
Protocol: Test compounds were prepared as 111X stocks in 100% DMSO. Kd values are determined using an 11-point 3-fold compound dilution series with three DMSO control points. All compounds for Kd measurements were distributed by acoustic transfer (non-contact dispensing) in 100% DMSO. The compounds were then diluted directly into the assays such that the final concentration of DMSO was 0.9%. All reactions were performed in polypropylene 384-well plate. Each was a final volume of 0.02 ml. The assay plates were incubated at room temperature with shaking for 1 hour and the affinity beads were washed with wash buffer (lx PBS, 0.05% Tween 20). The beads were then re-suspended in elution buffer (lx PBS, 0.05% Tween 20, 0.5 μM non-biotinylated affinity ligand) and incubated at room temperature with shaking for 30 minutes. The kinase concentration in the eluates was measured by qPCR. Binding constants are calculated with a standard dose-response curve using the Hill equation:
The Hill Slope was set to −1. Curves were fitted using a non-linear least square fit with the Levenberg-Marquardt algorithm. The binding data is summarized in Table 2 where A is less than 100 nM, B is 100 to 500 nM, and C is greater than 500 nM.

[1] = Stability under acidic LCMS condition; type: physicochemical; conditions: 0.1% formic acid mobile phase; hydrolyzed —OH product found
Protocol: All reactions were carried out under an atmosphere of argon. Reagents and solvents were used from commercial sources without additional purification. Hydrogenation reactions were run under a balloon. Microwave reactions were performed using a CEM Discover SP microwave synthesizer. Sample purification was conducted on a Buchi Pureflash with ELSD purification system using pre-packed commercially available silica gel columns. Thin layer chromatography (TLC) was performed on aluminium plates using Merck Kiesegel 60 F254 (230-400 mesh) fluorescent treated silica which were visualized under ultraviolet light (254 nm), or by staining with potassium permanganate or ninhydrin solution as appropriate. All Nuclear Magnetic Resonance (NMR) spectra were acquired on a Bruker Avance III HD 400 MHz NMR spectrometer; chemical shifts are reported in ppm (δ). […] All compounds purity was analyzed on Agilent 1260 Infinity II Lab LC Series HPLC (1260 Quatpum, 1260 vial autosampler, ICC column oven, 1260 DAD WR detector). […] All compounds that were evaluated in biological assay had >90% and animal study had >95% purity. […]

## c1ccc2c(c1)ccn2-c1nc(OC2CCCC2)nc(-n2cccn2)n1 [Compound 95, 1-(4-(Cyclopentyloxy)-6-(1H-pyrazol-1-yl)-1,3,5-triazin-2-yl)-1H-indole]
THP-1 human monocytes
  suppression of TNF-alpha (TNFA): suppression
  suppression of interleukin 1beta (IL1B): suppression
  suppression of interleukin 5 (IL5): suppression
  suppression of interleukin 6 (IL6): suppression
  suppression of interleukin 8 (IL8): suppression
  suppression of interleukin 13 (IL13): suppression
Naïve CD4+ T human cells
  FoxP3 expression levels (induction): 7 fold
JMJD3
  Kd: < 100 nM
[1]
  stability under acidic LCMS condition: unstable
